Article PMC6222636, “Determination of Novel Highly Effective Necrostatin Nec-1s in Rat Plasma by High Performance Liquid Chromatography Hyphenated with Quadrupole-Time-of-Flight Mass Spectrometry” (Molecules : A Journal of Synthetic Chemistry and Natural …, 2018)
Several values for one entry are separate records, joined by “and”; a condition that tells them apart may be missing. Equal values may be shown once. Read-outs that look alike come from different tables or passages of the source.

Tests used:
[1] = target: receptor interacting protein 1 (RIP1); details: cited from earlier work; for IC50: RIP1 inhibitor potency
[2] = system: indoleamine 2,3-dioxygenase (IDO); design: method as in PMID 23190609; details: cited from earlier work
[3] = design: method as in PMID 28946210; details: rat plasma, cited from earlier work
[4] = system: abdominal aortic aneurisms (elastase perfusion); design: method as in PMID 28186202; details: mice with aneurysm induced by elastase perfusion, cited from earlier work
[5] = Nec-1s plasma levels in rats by HPLC-Q-TOF after i.v. bolus; assay type: in vivo, male Wistar rats; details: for concentration at 50 min: male, Wistar, rat, plasma, iv, 0.37 mg/kg
Description: The developed and validated HPLC-Q-TOF method was applied for the determination of real plasma concentrations of Nec-1s in 5 male Wistar rats after i.v. administration of a bolus dose of Nec-1s (0.37 mg/kg). The samples taken from each subject were prepared and analyzed in triplicate. […] The measured data were consistent to each other with plasma concentrations in the range of 319.81–466.52 nM, and mean value of 377.26 nM. The differences in the found concentrations can be explained by different metabolism in the studied animals.
A total of 11 male Wistar rats (250–300 g body weight) were housed under standard conditions with a controlled light/dark cycle (12/12 h) and temperature (22 °C ± 2 °C), and fed a standard diet and tap water ad libitum. The anesthetized animals (natrium pentobarbital 60 mg/kg, i.p.) were randomized in two groups to receive either vehicle (C, n = 6) or Nec-1s (N, n = 5) and blood was collected from the abdominal aorta 50-min after drug application (a bolus dose; 0.37 mg/kg, i.v.; diluted in 20% v/v DMSO) into EDTA-containing syringes (S-Monovette, Starstedt, Germany). To obtain plasma, the blood was centrifuged at 4 °C for 15 min at 4000× g. The aliquots of plasma were stored at −80 °C until further procedure.
An aliquot of plasma was thawed at laboratory temperature. Afterwards, the rat plasma (180 µL) was mixed with the internal standard solution (20 µL, 1.25 µg/mL of prednisone in 50% (v/v) methanol). […] The precipitated sample was vortexed for 5 min (2400 rpm) and then centrifuged for 10 min (15000× g; 4 °C). After the centrifugation, 800 µL of supernatant was transferred into another tube and evaporated to dryness under a gentle stream of nitrogen at ambient temperature. The residuals were reconstituted with 100 µL of mobile phase (25:75 mixture of acetonitrile and water containing 0.1% formic acid) and an aliquot of the solution (5 µL) was used for the HPLC-DAD-Q-TOF analysis.
All of the analyses were carried out on the chromatographic apparatus consisting of LC Agilent Infinity System (Agilent Technologies, Santa Clara, CA, USA) equipped with a gradient pump (1290 Bin Pump VL), an automatic injector (1260 HiPals), and column thermostat (1290 TCC; set at 4 °C). The LC system was hyphenated with a photodiode array detector (Infinity 1290 DAD), and quadrupole time-of-flight (Q-TOF) mass spectrometer (Agilent 6520 Accurate-Mass Q-TOF LC/MS) equipped with the electrospray ionization (ESI) source operated in a positive ionization mode. A computer with a MassHunter software (version MassHunter Workstation B.05.01, Agilent Technologies) was used to control the apparatus as well as acquire and process the data. The Q-TOF mass spectrometer was operated under following parameters: drying gas temperature 360 °C, drying gas flow 12 L/min, nebulizing gas pressure 60 psi, capillary voltage 5500 V, fragmentor voltage 125 V, skimmer voltage 65 V, OctopoleRFPeak 550 V, and collision gas N2. […] In the processing the exact (theoretical) masses of their [M + H]^+ (278.0691 for Nec-1s; 359.1853 for prednisone), and [M + Na]^+ (300.0510 for Nec-1s; 381.1672 for prednisone) adducts were used. For the MS spectra obtained by the analysis of the stock solutions of Nec-1s and prednisone see Figure 4. The theoretical and experimentally found masses of the Nec-1s and prednisone adducts were in a very good mutual agreement so that Q-TOF was suitable for an unambiguous confirmation of the identity of the analyzed compounds in the samples. The EIC were extracted with m/z expansion of ±10 ppm. In case of DAD detector, the peak areas of the analyte and IS were evaluated at the wavelength of 280 nm.
The chromatographic separation of the Nec-1s was achieved by using RP-C18 chromatographic column–Zorbax Extend-C18, 2.1 × 50 mm, 1.8 µm obtained from Agilent Technologies. A gradient elution of mobile phases consisting of 0.1% formic acid in LC-MS water (A) and 0.1% formic acid in acetonitrile (B) was used. […]

[6] = design: method as in PMID 23190609; details: cited from earlier work
[7] = design: method as in PMID 23190609; details: cited from earlier work; remark: listed apart in the source
[8] = system: receptor interacting protein 1 (RIP1); test: RIP1 inhibition (necrostatin potency); assay type: biochemical; details: Nec-1s vs Nec-1
[9] = individual rats N1-N5, 50 min after i.v. bolus dose 0.37 mg/kg, n = 3 analyses

For CN1C(=O)C(Cc2c[nH]c3ccccc23)NC1=S (centres unmarked) [Nec-1, 5-(indol-3-ylmethyl)(2-thio-3-methyl)hydantoin], the IC50 [1] is listed as 494 nM, the “effect on IDO” value [2] is listed as “concomitant inhibition of indoleamine 2,3-dioxygenase (IDO)” and the “concentration level at 5 min after i.v. administration” value ([3]; i.v., 5 min) is listed as 1733 ng/mL. The “concentration level at 1 h after i.v. administration” value ([3]; i.v., 1 h) was 617 ng/mL, the “concentration level at 8 h after i.v. administration” value ([3]; i.v., 8 h) was < 100 ng/mL and the “concentration after 8 h, oral administration” value ([3]; oral, after 8 h) was “undetectable”. For the same compound, the “peak concentration after oral administration” value ([3]; oral) was 648 ng/mL, the “time of peak concentration after oral administration” value ([3]; oral) was 1 h and the “aortic diameter vs control” value ([4]; p = 0.1) was “smaller but the difference was not statistically significant”.
For O=C1NC(=S)NC1Cc1c[nH]c2ccccc12 (centres unmarked) [Nec-1i], the “capability to inhibit RIP1” value [1] is listed as “lacking the capability to inhibit RIP1” and the “effect on IDO” value [2] is listed as “found to be an IDO inhibitor”.
With CN1C(=O)NC(Cc2c[nH]c3c(Cl)cccc23)C1=O (centres unmarked) [Nec-1s, 5-((7-chloro-1H-indol-3-yl)methyl)-3-methyl-2,4-imidazolidinedione] the “Plasma Concentration (nM)” value [5, 9] was 327.43 nM and 398.08 nM and 319.81 nM and 466.52 nM, the “Plasma Concentration (ng/mL)” value [5, 9] was 90.93 ng/mL and 110.55 ng/mL and 88.81 ng/mL and 129.56 ng/mL and the concentration at 50 min ([5]; 50 min after i.v. bolus dose 0.37 mg/kg, 5 male Wistar rats, read-out: plasma concentration, mean value of 5 rats) was 377 nM. It also gave a concentration at 50 min ([5]; 50 min after i.v. bolus dose 0.37 mg/kg, 5 male Wistar rats, read-out: plasma concentrations, range over 5 rats) of 320 to 467 nM, a concentration at 50 min ([5]; individual rats N1-N5, 50 min after i.v. bolus dose 0.37 mg/kg, n = 3 analyses, read-out: Plasma Concentration) of 374 nM and a concentration at 50 min ([5]; individual rats N1-N5, 50 min after i.v. bolus dose 0.37 mg/kg, n = 3 analyses, read-out: Plasma Concentration (ng/mL)) of 104 ng/mL. The “metabolic stability in comparison to Nec-1” value [6] was “metabolically more stable”, the IC50 [1] was 210 nM and the “in vivo and in vitro toxicity compared with Nec-1” value [7] was “reduced”. The “effect on IDO” value [2] was “does not influence IDO”, the “inhibition activity relative to Nec-1” value [8] was 2 times and the aortic expansion ([4]; control 172.80%, p < 0.05) was 64.12%.
